Test results as given in patent US20110166206A1, “UBIQUILIN REGULATION OF PRESENILIN ENDOPROTEOLYSIS, AND SUPPRESSION OF POLYGLUTAMINE-INDUCED TOXICITY IN CELLS” (UNIVERSITY OF MARYLAND BIOTECHNOLOGY INSTITUTE, priority 2005, published 2011).

How the values were obtained:
GFP-HttQ74-3 cell line = type: cell-based; conditions: 100 uM, 5 hours exposure
Excerpt: FIG. 11. […] The 28Q-2 and 74Q-3 were used in most of our studies. The asterisk corresponds to a non-specific band that is detected by the GFP antibody. • B. Representative fluorescent images of GFP-HttPolyQ(28)-2 and GFP-HttPolyQ(74)-3 stable cell lines. Note that GFP fluorescence is located in both the cytoplasm and the nucleus, but that compact foci are only seen in the GFP-HttPolyQ(74)-3 cells. • C. Cells expressing expanded polyglutamine proteins are more sensitive to H2O2. The GFP-HftPolyQ(28)-2 and GFP-HttPolyQ(74)-3 stable cell lines were exposed to 200 μM concentration of H2O2 and after 5 hr, the cells were stained with both Hoechest 33342 and PI. […] Percentages of cell death calculated by determining the ratio of PI-positively stained cells to that of Hoechst-stained cells. […] Cell death was quantified as described in D above. • H. Representative images showing that ubiquilin-1 overexpression protects GFP-HttPolyQ(74)-3 expressing cells against serum withdrawal-induced cell death, in a dose-dependent manner. […] Bottom panel: Quantification of the spot intensity determined in three independent experiments.
Cell death was monitored either through examination of the nuclear morphology observed after Hoechst 33342 (1 μg/ml) staining, or through detecting the membrane selective permeability following 3 μM of propidium iodide (PI) staining. […]

Aph-1 = assay: UBQLN overexpression in PS inducible cells, Aph-1 immunoblot; type: cell-based; conditions: UBQLN overexpressed
Excerpt: (§1) (A) Examination of Nicastrin, Aph-1 and Pen-2 levels in PS1 cells lines that were either not induced (lanes 1 and 3) or induced with PonA (lanes 2 and 4) and either left untransfected (lanes 1 and 2) or transfected with UBQLN1 cDNA (lanes 3 and 4). Equivalent amounts of protein lysates were separated by 10% SDS-PAGE and immunoblotted with the appropriate antibodies. The filter was then reprobed an anti-actin to ensure equal loading. UBQLN overexpression decreases Pen-2 and Nicastrin levels.
(§2) Preparation of protein lysates, SDS-PAGE and immunoblotting of proteins were described previously. Primary antibodies used were rabbit anti-PS2 loop and rabbit anti-PS2 NH,-terminus, both raised to GST-PS2 fusion proteins; rabbit anti-ubiquilin [43] which reacts with UBQLN1 and UBQLN2 polypeptides; rat anti-PS1 NH2,-terminus (Chemicon International, Temecula, Calif.); rabbit anti-PS1 loop raised to GST-PS1 fusion proteins; goat anti-p27 and goat anti-actin (Santa Cruz Biotechnology, Santa Cruz, Calif.); mouse monoclonal anti-tubulin (Sigma-Aldrich, St. Louis, Mo.); rabbit anti-nicastrin (Abeam, Cambridge, Mass.), rabbit anti-Pen-2 (Zymed, San Francisco, Calif.); and rabbit anti-Aph-la (Covance, Berkeley, Calif.). […]

PS2 NTF [1] = assay: Cycloheximide time course of PS2 fragment production in PS2 inducible cells with or without UBQLN1 transfection; type: cell-based, human; conditions: PS2 inducible cell lysates, densitometry
Procedure: (A) Time course experiment using ponA-induced PS2 cell line cultures transfected with or without UBQLN1 expression plasmids were treated with […] cycloheximide for 0-6 hours. Equal amounts of protein lysate were separated by 8.5% SDS-PAGE and subsequently immunoblotted with anti-UBQLN antibody. Transfected cells reveal a 4-fold increase in UBQLN1 levels. Next, the protein lysates were immunoblotted using anti-PS2 NH,-terminal antibody to detect FL and NTF PS2 levels, as indicated. Note both FL PS2 turnover and NTF production levels in transfected versus untransfected cell lysates.
(B) Same experiment as (A) except FL PS expression was not induced using PonA.
(C) Graphs showing relative levels of PS2 polypeptides in PS2 inducible cell lysates after densitometric analysis of the immunoreactive bands shown in panels A and B. The levels were calculated by normalization of the signals relative to that in Lane 1. The Microsoft Excel program was used to produce a best-fit line for each graph. […] However, this is completely opposite of NTF levels. UBQLN not only decreases NTF levels at every time-point in the experiment, but it also slows the rate of NTF production, as determined by measuring the slope of each line.
HeLa and HEK293 cells were grown in DMEM supplemented with 10% FBS. PS1 and S2 inducible cell lines were generated by transfection of the pERV-expressing HEK293 cell line (Stratgene, IaIolla, Calif.) with FL human PS2 cDNA under the control of ponasteroneA (PonA)-inducible cassette in plasmid pEGSH (Stratagene). Stable integration of the pEGSH plasmid was achieved by selection for hygromycin resistance. PS expression was induced by adding PonA (final cont. 10 pM) to the medium. For proteasome inhibition studies, cultures were treated with 40 uM MG132 (Calbiochem, San Diego, Calif.) for time periods as indicated. […]
To this end, protein synthesis was inhibited using cyclohexamide (CHX) and PS fragment production was monitored over a six-hour time period in UBQLN transfected and untransfected lysates that were either induced or uninduced for PS expression. […]

Pen-2 = assay: UBQLN overexpression in PS inducible cells, Pen-2 immunoblot; type: cell-based; conditions: induced lysates
Excerpt: as §1
(C) Densitometric analysis was used to quantify the extent of reduction. Each experiment was repeated more than three times.
as §2

Nicastrin = assay: UBQLN overexpression in PS inducible cells, Nicastrin immunoblot; type: cell-based; conditions: UBQLN overexpressed
Excerpt: as §1, §2

PS2 NTF [2] = assay: Pulse-chase of PS2 NTF turnover with or without UBQLN overexpression; type: cell-based; conditions: 35 hour chase, with vs without UBQLN overexpression

| Compound | cell death (GFP-HttQ74-3 cell line) | Aph-1 levels (Aph-1) | FL PS2 levels (PS2 NTF [1]) | reduction of Pen-2 levels (Pen-2) [fold] | levels of mature Nicastrin (Nicastrin) | turnover of PS2 NTF (PS2 NTF [2]) |
| --- | --- | --- | --- | --- | --- | --- |
| OO [H2O2] | approximately 30% |  |  |  |  |  |
| UBQLN: ubiquilin protein overexpressed from cDNA plasmids, isoform not specified at the place |  | remain steady | increases FL PS2 levels dramatically | 2 | decreased | no significant difference |
